According to ChEMBL document CHEMBL3576862, “Peptidic inhibitors for in vitro pentamer formation of human papillomavirus capsid protein l1” (ACS Med Chem Lett, 2015):
The source made the active and inactive calls. No cut-off for these calls is given here.

Assays:
[1] = molecular target: T1, Major capsid protein L1 (Human papillomavirus 16) (UniProt P03101); assay: Inhibition of GST-tagged HPV16 major capsid protein L1 pentamer formation at 1:100 ratio of pentamer to compound in presence of PPase by FPLC method
T1 sequence (whole entry): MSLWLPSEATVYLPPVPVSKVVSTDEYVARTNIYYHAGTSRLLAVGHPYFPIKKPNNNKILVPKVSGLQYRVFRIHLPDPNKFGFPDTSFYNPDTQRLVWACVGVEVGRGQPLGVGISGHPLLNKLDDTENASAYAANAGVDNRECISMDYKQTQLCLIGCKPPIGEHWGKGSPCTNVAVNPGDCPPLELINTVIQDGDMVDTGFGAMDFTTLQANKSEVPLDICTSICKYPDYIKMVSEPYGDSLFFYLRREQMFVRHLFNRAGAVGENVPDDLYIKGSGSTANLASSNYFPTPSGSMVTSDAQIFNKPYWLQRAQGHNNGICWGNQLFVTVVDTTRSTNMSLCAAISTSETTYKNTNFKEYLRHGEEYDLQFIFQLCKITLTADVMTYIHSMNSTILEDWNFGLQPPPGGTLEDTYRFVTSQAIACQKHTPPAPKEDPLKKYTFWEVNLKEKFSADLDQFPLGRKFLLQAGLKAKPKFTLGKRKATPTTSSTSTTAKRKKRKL

[2] = molecular target: T1, Major capsid protein L1 (Human papillomavirus 16); assay: Binding affinity to GST-tagged HPV16 major capsid protein L1 by FRET assay
[3] = molecular target: T1, Major capsid protein L1 (Human papillomavirus 16); assay: Binding affinity to GST-tagged HPV16 major capsid protein L1 assessed as increase in thermal stability by measuring melting temperature at 1:100 ratio of pentamer to compound by UV cloud point measurement assay
[4] = molecular target: T1, Major capsid protein L1 (Human papillomavirus 16); assay: (§1) Inhibition of pentamer formation of GST-tagged HPV16 major capsid protein L1 assessed as increased L1-m peak formation incubated with compound after overnight PPase-mediated digestion by size-exclusion chromatography
[5] = molecular target: T2, Major capsid protein L1 (Human papillomavirus 16, UniProt P03101); assay: as §1
T2 sequence (P03101 whole entry): T1 sequence (whole entry)

[6] = molecular target: T1, Major capsid protein L1 (Human papillomavirus 16); assay: Binding affinity to GST-tagged HPV16 major capsid protein L1 pentamer formation at 1:100 ratio of pentamer to compound by CD spectroscopy method
[7] = molecular target: T2, Major capsid protein L1; assay: Binding affinity to GST-tagged HPV16 major capsid protein L1 using CY3-labeled compound by FRET assay
[8] = molecular target: T1, Major capsid protein L1 (Human papillomavirus 16); assay: Inhibition of GST-tagged HPV16 major capsid protein L1 pentamer assembly assessed as size distribution of hydrodynamic diameter of pentamer assembly in presence of PPase by dynamic light scattering method (reference value: 14.9 nanometer)
[9] = molecular target: T1, Major capsid protein L1 (Human papillomavirus 16); assay: Inhibition of GST-tagged HPV16 major capsid protein L1 pentamer assembly assessed as reduction in pentamer assembly at 1:50 ratio of pentamer to compound in presence of PPase by static light scattering method
[10] = molecular target: T1, Major capsid protein L1 (Human papillomavirus 16); assay: Inhibition of GST-tagged HPV16 major capsid protein L1 pentamer assembly assessed as size distribution of hydrodynamic diameter of pentamer assembly in presence of PPase measured after dialysis by dynamic light scattering method and transmission electron microscopy
[11] = molecular target: T1, Major capsid protein L1 (Human papillomavirus 16); assay: Inhibition of GST-tagged HPV16 major capsid protein L1 pentamer assembly assessed as reduction in pentamer assembly in presence of PPase by static light scattering method
[12] = molecular target: T3, Major capsid protein L1 (human papillomavirus 58) (UniProt P26535); assay: Inhibition of GST-tagged HPV58 major capsid protein L1 pentamer formation at 1:100 ratio of pentamer to compound in presence of PPase by FPLC method
T3 sequence (whole entry): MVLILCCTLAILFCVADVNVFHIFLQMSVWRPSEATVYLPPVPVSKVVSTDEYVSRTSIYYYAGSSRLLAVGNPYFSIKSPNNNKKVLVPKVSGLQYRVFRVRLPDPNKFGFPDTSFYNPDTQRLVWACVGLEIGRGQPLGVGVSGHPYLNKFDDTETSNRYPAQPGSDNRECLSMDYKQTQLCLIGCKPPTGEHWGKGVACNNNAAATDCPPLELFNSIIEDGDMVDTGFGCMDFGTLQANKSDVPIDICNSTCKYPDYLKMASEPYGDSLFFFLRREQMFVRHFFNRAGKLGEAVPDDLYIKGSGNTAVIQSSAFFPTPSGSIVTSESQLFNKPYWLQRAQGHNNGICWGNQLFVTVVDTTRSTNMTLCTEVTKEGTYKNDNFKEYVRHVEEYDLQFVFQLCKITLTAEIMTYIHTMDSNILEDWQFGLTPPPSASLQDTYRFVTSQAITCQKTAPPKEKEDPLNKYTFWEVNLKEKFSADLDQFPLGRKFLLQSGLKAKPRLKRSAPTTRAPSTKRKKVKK

[13] = molecular target: T4, Major capsid protein L1 (human papillomavirus 18) (UniProt P06794); assay: Inhibition of GST-tagged HPV18 major capsid protein L1 pentamer formation at 1:100 ratio of pentamer to compound in presence of PPase by FPLC method
T4 sequence (whole entry): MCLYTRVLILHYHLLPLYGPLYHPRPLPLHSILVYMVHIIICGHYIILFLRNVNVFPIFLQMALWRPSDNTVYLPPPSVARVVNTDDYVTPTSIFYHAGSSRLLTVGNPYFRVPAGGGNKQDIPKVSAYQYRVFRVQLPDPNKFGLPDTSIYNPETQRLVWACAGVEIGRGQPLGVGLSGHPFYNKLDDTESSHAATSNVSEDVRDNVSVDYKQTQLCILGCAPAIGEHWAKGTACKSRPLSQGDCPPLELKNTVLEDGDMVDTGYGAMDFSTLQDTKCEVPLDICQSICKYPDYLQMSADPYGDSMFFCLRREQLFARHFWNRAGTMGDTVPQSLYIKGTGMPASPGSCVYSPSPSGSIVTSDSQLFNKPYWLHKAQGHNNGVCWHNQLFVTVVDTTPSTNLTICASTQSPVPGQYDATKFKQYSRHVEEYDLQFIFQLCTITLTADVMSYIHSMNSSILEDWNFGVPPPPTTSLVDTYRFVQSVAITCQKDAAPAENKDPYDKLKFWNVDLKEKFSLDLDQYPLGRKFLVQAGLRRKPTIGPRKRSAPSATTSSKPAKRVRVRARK

[14] = molecular target: T1, Major capsid protein L1 (Human papillomavirus 16); assay: Inhibition of pentamer formation of GST-tagged HPV16 major capsid protein L1 assessed as increased L1-m peak formation incubated with compound after overnight PPase-mediated digestion and measured after dialysis by dynamic light scattering method

Question: With H-PLGRKFL-OH as the compound, how does the inhibition [1] read?
Answer: inactive

Question: With H-DLDQSPLGRKFLLQ-OH as the compound, how does the inhibition [1] read?
Answer: inactive

Question: How did the Activity [2] turn out when H-SGFLRQLGFDKLQD-OH was run?
Answer: inactive

Question: What about the Activity [3] of the same compound?
Answer: inactive

Question: What about the inhibition [4] of the same compound?
Answer: inactive

Question: For H-DLDQFPLGR-OH, which inhibition [1] is on record?
Answer: inactive

Question: For H-QFPLGRKFL-OH, which inhibition [1] is on record?
Answer: Active

Question: How did the IC50 [5] turn out when CC(C)C[C@H](NC(=O)CNC(=O)[C@H](C)NC(=O)[C@H](CCC(N)=O)NC(=O)[C@H](CC(C)C)NC(=O)[C@H](CC(C)C)NC(=O)[C@H](Cc1ccccc1)NC(=O)[C@H](CCCCN)NC(=O)[C@H](CCCNC(=N)N)NC(=O)CNC(=O)[C@H](CC(C)C)NC(=O)[C@@H]1CCCN1)C(=O)N[C@@H](CCCCN)C(=O)N[C@@H](C)C(=O)N[C@@H](CCCCN)C(=O)O was run?
Answer: 48.1 nM

Question: How did the inhibition [1] turn out when H-DLDQFPAGRKFLLQ-OH was run?
Answer: inactive

Question: What about the Activity [6] of the same compound?
Answer: inactive

Question: CC(C)C[C@H](NC(=O)[C@H](CC(C)C)NC(=O)[C@H](Cc1ccccc1)NC(=O)[C@H](CCCCN)NC(=O)[C@H](CCCNC(=N)N)NC(=O)CNC(=O)[C@H](CC(C)C)NC(=O)[C@@H]1CCCN1C(=O)[C@H](Cc1ccccc1)NC(=O)[C@H](CCC(N)=O)NC(=O)[C@H](CC(=O)O)NC(=O)[C@H](CO)NC(=O)[C@@H](N)CC(=O)O)C(=O)N[C@@H](CCC(N)=O)C(=O)O was tested. Which inhibition [1] did it give?
Answer: inactive

Question: Which inhibition [1] does the source give for H-DLDQFPSSSKFLLQ-OH here?
Answer: inactive

Question: And the Activity [6]?
Answer: inactive

Question: How did the Kd [7] turn out when CC(C)C[C@H](NC(=O)[C@H](CC(C)C)NC(=O)[C@H](Cc1ccccc1)NC(=O)[C@H](CCCCN)NC(=O)[C@H](CCCNC(=N)N)NC(=O)CNC(=O)[C@H](CC(C)C)NC(=O)[C@@H]1CCCN1C(=O)[C@H](Cc1ccccc1)NC(=O)[C@H](CCC(N)=O)NC(=O)[C@H](CC(=O)O)NC(=O)[C@H](CC(C)C)NC(=O)[C@@H](N)CC(=O)O)C(=O)N[C@@H](CCC(N)=O)C(=O)O was run?
Answer: 600 nM

Question: And the Activity [8]?
Answer: 9.4 nm

Question: What about the inhibition [9] of the same compound?
Answer: Active

Question: What about the Activity [10] of the same compound?
Answer: inactive

Question: And the inhibition [11]?
Answer: Dose-dependent effect

Question: And the Activity [3]?
Answer: Active

Question: What about the inhibition [12] of the same compound?
Answer: Active

Question: What about the inhibition [13] of the same compound?
Answer: inactive

Question: What about the IC50 [5] of the same compound?
Answer: 19.4 nM

Question: And the inhibition [4]?
Answer: Dose-dependent effect

Question: And the Activity [14]?
Answer: inactive

Question: For H-DLDQFPLGAKFLLQ-OH, which inhibition [1] is on record?
Answer: inactive

Question: And the Activity [6]?
Answer: inactive
